The record followed here is patent US8871815B2, “Therapeutic compounds” (Signature Therapeutics, Inc., priority 2007, dated 2014).

A word on the MTD: it is the highest dose tested that stayed within the study's limit of toxicity. As usually defined, the inhibition is the percentage by which the read-out fell short of the control. Usually AUC stands for concentration integrated over time.

Data set [1] can be described thus: Anesthetic effects in rats, bolus IV, Loss of Righting Reflex (LORR). Format: in vivo, rat. As to conditions: male, Sprague-Dawley, rat, in vivo; bolus IV, rats; read-out: MTD (maximum tolerated dose). On the procedure:
(§1) Also measured was minimum dose to achieve LORR and maximum tolerated dose (MTD).
(§2) The ranges of doses studied were 1.9, 2.3, 3.0, 7.0, 13.7, 14.0 and 15.2 mg/kg for Compound 1 and 3.5, 4.0, 7.0 and 14.0 mg/kg for […].

Data set [2] concerns male Sprague-Dawley rats. The description is as above. The data set is classed as in vivo, rat. On the procedure:
as §1, §2

Another data set deals with rats. Briefly: Separate rat study, bolus IV, 1% in cremaphor, sleep time. Format: in vivo. As to conditions: for Sleep Time (duration of anesthesia): 7 mg/kg bolus IV.
Data set [3] concerns Beagle dogs. Briefly: Hemodynamic effects (blood pressure) in beagle dogs, bolus IV. The data set is classed as in vivo, dog. As to conditions: 4 min after administration. The method, then:
The study was a crossover design. […] The MTD was defined as the dose that reduced mean arterial blood pressure (MAP) by 50% or to less than 50 millimeters of mercury (mmHg or mm Hg). All animals received supplemental oxygen and, if needed, ventilatory support after 4 min of apnea.
Hemodynamic data, such as mean arterial pressure (MAP), were recorded at baseline, 1, 2, 4, 8, 15, 20 and 30 min. Compound 1 was administered at 5, 10, 15 and 30 mg/kg to 3, 6, 6 and 3 dogs respectively. […] Data were analyzed with a 2-way ANOVA followed by t-test with Bonferroni correction for multiple comparisons.

For data set [4], the system named is Beagle dogs.
The test system of data set [5] is male Sprague-Dawley rats. Briefly: Anesthetic effects in rats, bolus IV, Loss of Righting Reflex (LORR). The data set is classed as in vivo, rat. As to conditions: 49 mg/kg bolus IV.
For the next data set, the system named is ferrets. Briefly: Anti-emetic activity in ferrets (morphine sulfate induced emesis). The note with it: 6 ferrets. The method, then: Male descented ferrets weighing 1.0-1.5 kg with vascular access ports in the jugular vein were housed on a 12/12-hour light/dark cycle under controlled temperature, with food and water provided ad libitum. On each study day, food was presented to ferrets one hour prior to dosing. Immediately prior to dosing, food and water were removed. A 1% Compound 1 formulation, prepared as described in Example 5 and formulated in accordance with Example 4, or […] was administered by IV infusion to the ferrets; see Wynn R L et al, 1993, Eur J Pharmacol 241, 42 re […] administration in ferrets. After administration of Compound 1 or […], animals were placed in clean, transparent cages (with lids) and left unrestrained for a 45-min observation period by an observer blinded to the specific treatment administered.
Episodes of retching and/or vomiting were considered separate episodes when the interval between retches and/or vomits exceeded 5 sec.
After termination of the infusion, 0.5 mg/kg morphine sulfate was administered subcutaneously and the ferrets were monitored for 45 min as described above. Six additional ferrets were administered subcutaneously 0.5 mg/kg morphine sulfate only.

Data set [6] has as its target T1, phosphodiesterase 2 (PDE2) (Homo sapiens, UniProt O00408).
T1 construct: Cerep, Inc
Description: Cerep Diversity Profile: enzymes, PDE2. The data set is classed as biochemical. The note with it: tested at 10 μM; read-out: inhibition of control binding, PDE2.

The subject of data set [7] is alpha2, NMDA, PCP, benzodiazepine or opioid receptors. Description: Cerep Diversity Profile: other receptors. The data set is classed as binding. As to conditions: tested at 10 μM.
Data set [8] is described as follows: Aqueous phase concentration in lipid emulsion (ultrafiltration, LC/MS/MS). The data set is classed as physicochemical. As to conditions: 1% lipid emulsion formulation. The method, then: The concentration of Compound 1 in the aqueous phase (aqueous phase concentration) of a lipid emulsion formulation was determined.
A one percent (1%) Compound 1 formulation was formulated in accordance with Example 4, Compound 1 being prepared as described in Example 5.

For another data set, the system named is mongrel dogs. Description: Anesthetic and hemodynamic effects in chronically instrumented mongrel dogs, total intravenous anesthesia. The data set is classed as in vivo, dog. The note with it: IV bolus then stepwise IV infusions 0.25-2.0 mg/kg/min. On the procedure: Assessments included hemodynamic performance parameters such as blood pressure, heart rate, and cardiac output as well as clinical chemistry parameters and EEG analysis.
General anesthesia was induced in the dogs by IV administration of 7 mg/kg […], and the dogs were tracheally intubated and mechanically ventilated. General anesthesia was maintained using 2.2% end-tidal sevoflurane in oxygen. A thoracotomy was performed at the fifth left intercostal space, and heparin-filled catheters were placed in the proximal descending thoracic aorta (P50 pressure transducer Gould, Oxnard, Calif.), and in the right and left atria to provide IV access. An ultrasonic transit-time flow probe (T108, Transonic Systems, Ithaca, N.Y.) was placed around the ascending thoracic aorta. A […] Doppler flow probe (Model HDP-20-3.5, Triton Surgical Technologies, San Diego, Calif.) was placed around the left anterior descending coronary artery. Six MHz sonomicrometer crystals (Hartley, Houston, Tex.) were implanted in the subendocardium. A high fidelity micromanometer (P7, Konigsberg Instruments, Pasadena, Calif.) was inserted into the left ventricle. […]
The dogs were fasted overnight. […] EEG was recorded continuously during the experiment. Arterial blood gas and chemistry measures included pH, pO2, sO2, pCO2, tCO2, carbonate, potassium, sodium, and base excess, and were measured immediately following blood draws using a blood gas and chemistry analyzer (ABL-505, Radiometer, Copenhagen). […] Following stabilization, baseline measurements of EEG, hemodynamics, ECG, and blood gases were recorded. Blood samples were drawn for PK and clinical chemistry, and pressure volume loops were generated and data recorded.
Following induction, the dogs were tracheally intubated, and mechanically ventilated using 50% oxygen in nitrogen throughout the subsequent drug infusion and recovery periods. […] MAP was monitored continuously, and dosing was discontinued immediately if MAP decreased below 50 mmHg at any time or if the heart rate increased over 200 beats per minute. […]

The nature of the next data set: in vivo. As to conditions: both, pig, in vivo, iv. The method, then:
(§3) Experiments were performed on commercial farm-bred swine of either sex (mean weight 33.6 kg). Anesthesia was induced with isoflurane. Intravascular access was obtained from an ear vein. Each pig was intubated and mechanically ventilated. Tissue oxygenation was monitored using continuous pulse oximetry placed on the tongue. Ventilation was monitored using an inspired/expired gas analyzer that measured oxygen, carbon dioxide, and potent inhalation agent concentrations. Ventilator settings were adjusted as needed to maintain steady state.
(§4) ECG was monitored throughout the study. Arterial blood pressure was monitored through the cannulated left femoral artery. MAP, systolic and diastolic arterial pressures and heart rate were collected every 5 seconds. An internal jugular vein was cannulated with a pulmonary artery catheter for thermodilution estimates of cardiac output and blood temperature. Body temperature was maintained at 37° C. Instrumentation for EEG monitoring was accomplished using an adhesive electrode array over the fronto-occipital regions (Aspect Medical. Norwood, Mass., USA).
(§5) Metabolic and hemodynamic parameters for each group were compared at multiple time points using an unpaired two-tailed Student t test. To account for multiple comparisons and maintain the probability of a type I error below 0.05, P values less than 0.025 were considered significant.

For data set [9], the system named is pigs. Briefly: in vivo. As to conditions: pig, in vivo, iv. On the procedure: as §3, §4, §5
The subject of data set [10] is pigs. Briefly: Hemodynamic effects, arterial blood gas and serum chemistry in pigs, IV infusion. Format: in vivo, pig. As to conditions: IV infusion, pigs (Compound 1 0.384, propofol 0.750 mg/kg/min). The method, then:
Anesthesia was induced with isoflurane. Intravascular access was obtained from an ear vein. Each pig was intubated and mechanically ventilated.
ECG was monitored throughout the study. […] Body temperature was maintained at 37° C.
Arterial blood gas samples from pigs infused with Compound 1 were taken and analyzed for blood gas and serum chemistry values; mean values are reported in Table 4.

The mark [11] stands for this setting: morphine sulfate 0.5 mg/kg subcutaneously alone, 45 min observation.
[12] abbreviates: 15 min IV infusion at 1 mg/kg/min, then 0.5 mg/kg morphine sulfate sc, 45 min.

The structures appear in SMILES notation. Where two headings read alike, the source gives them in different places. Marks after values point to notes of the source that are not given here.

T1 sequence (O00408 whole entry): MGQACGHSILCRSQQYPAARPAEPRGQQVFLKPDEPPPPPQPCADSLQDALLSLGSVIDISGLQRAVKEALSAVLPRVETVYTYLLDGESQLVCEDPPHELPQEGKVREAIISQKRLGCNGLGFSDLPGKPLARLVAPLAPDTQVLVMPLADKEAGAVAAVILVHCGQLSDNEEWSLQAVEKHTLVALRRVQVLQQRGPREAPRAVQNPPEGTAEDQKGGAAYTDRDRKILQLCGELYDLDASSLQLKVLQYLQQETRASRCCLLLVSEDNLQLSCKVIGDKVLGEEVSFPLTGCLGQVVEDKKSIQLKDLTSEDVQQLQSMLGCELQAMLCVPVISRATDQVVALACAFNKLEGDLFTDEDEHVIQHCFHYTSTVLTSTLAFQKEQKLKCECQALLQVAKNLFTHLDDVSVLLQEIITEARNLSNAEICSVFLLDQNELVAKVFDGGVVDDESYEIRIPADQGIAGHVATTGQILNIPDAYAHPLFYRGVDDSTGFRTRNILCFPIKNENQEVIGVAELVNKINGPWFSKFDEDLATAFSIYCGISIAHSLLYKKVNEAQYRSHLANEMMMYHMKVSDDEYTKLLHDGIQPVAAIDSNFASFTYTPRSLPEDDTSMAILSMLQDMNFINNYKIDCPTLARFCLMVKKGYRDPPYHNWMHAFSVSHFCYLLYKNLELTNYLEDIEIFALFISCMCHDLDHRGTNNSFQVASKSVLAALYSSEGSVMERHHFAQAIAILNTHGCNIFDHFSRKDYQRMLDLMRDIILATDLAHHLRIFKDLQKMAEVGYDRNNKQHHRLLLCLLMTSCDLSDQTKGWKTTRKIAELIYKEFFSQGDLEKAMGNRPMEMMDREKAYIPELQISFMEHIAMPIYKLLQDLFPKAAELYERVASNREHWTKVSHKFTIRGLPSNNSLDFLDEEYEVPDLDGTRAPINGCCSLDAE

As for `CC[C@H](C)c1cccc([C@@H](C)CC)c1O` (single isomer, unassigned) [(S,S)], in [1], the MTD was determined as 42 mg/kg. In addition, the “HD50 (dose required to cause 50% of the rats to lose righting reflex)” value with male Sprague-Dawley rats [2] (bolus IV, rats) amounted to 4 mg/kg. In the data set with male Sprague-Dawley rats [2] (bolus IV, rats), the “HD7min (dose required to produce 7 minutes of anesthesia)” value is 5.2 mg/kg. In the data set with male Sprague-Dawley rats [2] (bolus IV, rats), the “TI (therapeutic index, ratio of MTD to HD7 min)” value is listed as 8.1. In the data set on rats (rats), the “Sleep Time (duration of anesthesia)” value amounted to 6.3 min. The “MAP % change from baseline” value in the data set on Beagle dogs [3] (10 mg/kg bolus IV) was “+7%”; in the data set on Beagle dogs [3] (15 mg/kg bolus IV), “+5%”; in the data set on Beagle dogs [3] (30 mg/kg bolus IV) it was 0%. For the same compound, the “duration of anesthesia (sleep time)” value in the data set with Beagle dogs [4] (5 mg/kg bolus IV, dogs) was determined as 8 min; in the data set on Beagle dogs [4] (10 mg/kg bolus IV, dogs) it was 24 min; in the data set on Beagle dogs [4] (15 mg/kg bolus IV, dogs), 50 min; in the data set with Beagle dogs [4] (30 mg/kg bolus IV, dogs), 50 min. Besides, the deaths entry in the data set on male Sprague-Dawley rats [5] is given as “One of six rats died”.
`CC[C@@H](C)c1cccc([C@@H](C)CC)c1O` [(meso), (meso)-2,6-di-sec-butylphenol]: in the data set on rats (rats), the “Sleep Time (duration of anesthesia)” value came to 12.7 min. Further, the deaths entry in the data set with rats (21 mg/kg, rats) is listed as “One of 6 rats”. The compound also had a duration of anesthesia in the data set on rats (21 mg/kg, remaining 5 rats) of 34 min. Moreover, the entries for the “MAP % change from baseline” value in the data set on Beagle dogs [3] (10 mg/kg bolus IV), in the data set on Beagle dogs [3] (15 mg/kg bolus IV) and with Beagle dogs [3] (30 mg/kg bolus IV) were “+5%”, “+15%” and −16%, respectively. The “duration of anesthesia (sleep time)” value in the data set on Beagle dogs [4] (5 mg/kg bolus IV, dogs) was 25 min; in the data set on Beagle dogs [4] (10 mg/kg bolus IV, dogs), 36 min; in the data set with Beagle dogs [4] (15 mg/kg bolus IV, dogs) it was 55 min; in the data set with Beagle dogs [4] (30 mg/kg bolus IV, dogs) it was 58 min. The “quality of anesthesia (smoothness of induction, muscle tone, involuntary motion)” value in the data set with Beagle dogs [4] (bolus IV, dogs) was “inferior”.
In the data set on ferrets (setting [11]), `CN1CC[C@]23c4c5ccc(O)c4O[C@H]2[C@@H](O)C=C[C@H]3[C@H]1C5.O=S(=O)(O)O` [Morphine sulfate] showed an episodes of vomiting of 15 and a retches of 157.
With `CC(C)c1cccc(C(C)C)c1O` [Propofol, 2,6-diisopropylphenol, reference compound], the inhibition at 10 µM in data set [6] was over 20%. In data set [7], the “effects at alpha2, NMDA, PCP, benzodiazepine or opioid receptors” value is given as “No significant effects”. In data set [8], this compound returned an aqueous phase concentration of 6.28 ± 0.41 µg/mL. In the data set with male Sprague-Dawley rats [2] (3.5 mg/kg bolus IV, 6 rats), the LORR produced result was “no LORR in 4 of 6 rats”. The “HD50 (dose required to cause 50% of the rats to lose righting reflex)” value in the data set with male Sprague-Dawley rats [2] (bolus IV, rats) amounted to 3.8 mg/kg. The “HD7min (dose required to produce 7 minutes of anesthesia)” value in the data set with male Sprague-Dawley rats [2] (bolus IV, rats) was 7.0 mg/kg. The “Sleep Time (duration of anesthesia)” value with rats (rats) was 7.1 min. The “MAP % change from baseline” value in the data set with Beagle dogs [3] (10 mg/kg bolus IV) is −22%; with Beagle dogs [3] (15 mg/kg bolus IV) it was −32%; in the data set on Beagle dogs [3] (30 mg/kg bolus IV), −66%*. Also, the “Cardiac output versus baseline” value in the data set on mongrel dogs was “significantly reduced from baseline”. The compound also had an AUC in the data set “in vivo” of 1810 ng·h/mL. Also, the “IV infusion time producing maximal suppression of BIS” value with pigs [9] is 9.4 ± 1.9 min. Besides, the “lowest HR measured” value with pigs [10] came out at 88±6 bpm. Further, the retches with ferrets (setting [12]) was 47. Further, the vomits with ferrets (setting [12]) is 3. In the data set on Beagle dogs [4] (dog, in vivo, iv), the “dogs reaching the MTD (MAP reduced by 50% or to less than 50 mmHg)” value is “Two of 3 dogs”.
